We go through one compound from patent US12108719B2, “Methods for creating doubled haploid plants” (Monsanto Technology LLC, priority 2015, dated 2024).

For assay [1], the system named is induced haploid germplasms (A and B). Nature of the assay: Co-dominant ear induction by PBZ soil drench in colchicine-treated haploid maize (Example 1). Type of assay: in vivo. From the text: V1-V3 seedlings of two unique F1 hybrid-derived haploid maize lines, derived from: female heterotic group (Germplasm A) or male heterotic group (Germplasm B), were subjected to a bulk colchicine-based chromosome doubling treatment by removing the seedlings from soil or growth media at the V1-V3 growth stage and aligning their stems and wrapping them together along with several wooden rods into bundle a held together by a strip of aluminum foil (approximate foil strip dimensions were 6 in×18 in). The bundled plants were submerged in plant treatment solution comprising 1250 ppm of colchicine in a centrifuge container and then the entire sample was centrifuged at 50 g for 3 min while the shoot apical meristems (SAMs) remained submerged in the plant treatment agent solution.
Following the first centrifugation, the plant treatment solution was decanted and the seedlings subjected to an addition centrifugation at 335 g for 3 min. During the second centrifugation, the rod-wrap bundle supported the seedlings and prevented the SAMs from contacting the reserve treatment agent that was not absorbed by the plant during application of the centrifugal force.
Following the second centrifugation, the plants were removed from the centrifugation container and the rod-wrap bundle and rinsed with water to remove any remaining colchicine solution, and then recovered and tended in a light, humidity, and temperature-controlled greenhouse for several days before being transplanted to a nursery greenhouse. These centrifuge-based treatment methods are described in more detail in International application number PCT/US2015/028955, which is incorporated by reference herein in its entirety, however, standard doubling treatments can also be applied to any of the haploid doubling steps referred to herein.
Following colchicine doubling treatment, 15-20 plants from each germplasm were planted in pots at two different densities; either as single plants per pot (singles), or as two plants per pot (pairs).
Next, each plant received one of two different doses of PBZ, either 50 mL (low dose) or 60 mL (high dose) of a 2.5% PBZ solution (v/v; 0.4% of active ingredient) in water. These two different doses were applied by soil drench at either the V7 or V8 growth stage, which occurred a total of 23 or 26 days after the seedlings had been subjected to chromosome doubling treatment, respectively. A control group of plants received no treatment solution but were otherwise treated exactly as the experimental groups planted as singles. When pollen shed began at the tassels, the average number of silk-producing ears (i.e. co-dominant ears) were counted for each dosage, germplasm, and treatment time and the results summarized in Table. 1.

Assay [2] relates to maize inbred lines Germplasm A and LH244. Briefly: Co-dominant ear induction in diploid inbred lines (Example 5). Type of assay: in vivo. How it is done: Seeds of maize inbred lines Germplasm A and LH244 were planted in soil, germinated, and then transplanted to 10-inch pots after approximately one week, one seedling per pot. The plants were subjected to a co-dominant ear induction treatment at the V8 stage comprising drenching the soil surrounding the roots of each plant with 50 mL of a 2.5% PBZ solution (v/v; 0.4% of active ingredient). The plants were tended in a greenhouse until sexual maturity, then they were self-pollinated. When seed set had completed, the number of co-dominant ears, and the total number of kernels, produced by each plant were counted. Control plants for each germplasm were processed in the same way as the treated groups, except that the control plants were not subjected to the co-dominant ear induction treatment.

Some results are limits rather than exact numbers.

As for `CC(C)(C)[C@H](O)[C@H](Cc1ccc(Cl)cc1)n1cncn1` (relative stereo) [PBZ, (2S,3S)-1-(4-chlorophenyl)-4,4-dimethyl-2-(1,2,4-triazol-1-yl) pentan-3-ol], the “number of co-dominant ears formed per plant” value in assay [1] (V7, Germplasm A, planted as pairs, low dose (50 mL 2.5% PBZ)) turned out to be 3. Further, in assay [1] (all plants, high vs low dosage), the “average EP of high dosage greater than EP of low dosage” value is 0.31. In addition, the “high-dose EP average higher than the low-dose” value in assay [1] (only the singles) is 0.55. Moreover, the “minimum increase of EP over control plants” value in assay [1] (singles subjected to the low dose) is listed as at least 1.2 EP. For the same compound, in assay [2] (Treated, Germplasm A diploid, 50 mL 2.5% PBZ soil drench at V8), the “Ave. Ears Per Plant” value was 8. Moreover, the “response of average total kernels per plant and average ears per plant vs control” value in assay [2] (both germplasms (Germplasm A, LH244)) is “more than doubling”.
